This is an account of results in patent publication US5900434A, “Method for inhibiting the production of interleukin-1 or tumor necrosis factor-α by administering acanthoic acid” (Korea Institute of Science and Technology, priority 1994, dated 1999).

In this assay the test system is O2^- production in human neutrophils. Nature of the assay: Production of O2^- in human neutrophils (PMA-stimulated). Format: cell-based. As to the method: Normal human peripheral blood was heparin-treated and diluted with equal amount of Hank's balanced salt solution (HBSS: Ca^2+ and Mg^2+ free). The diluted blood was put into a centrifuge tube containing therein Ficoll-Hypaque(Sigma, St. Louis, Mo., U.S.A.) layer having a density of 1.077 piled up on Ficoll-Hypaque layer having a density of 1.119, and then centrifuged at 700×g for 30 minutes to obtain monocytes from the layer between Ficoll-Hypaque layer having a density of 1.077 and serum layer, and neutrophils from the layer between Ficoll-Hypaque layer having a density of 1.077 and that having a density of 1.119. The separated cells were washed twice with 4° C. HBSS(Ca^2+ and Mg^2+ free) and suspended in RPMI 1640 medium(Gibco, Grand Island, N.Y., U.S.A.) containing 10% fetal bovine serum(FBS, Hyclone, Logan, Utah, U.S.A.). The suspensions were added to the wells of 24-well incubation plate(Costar, Cambridge, Mass., U.S.A.) and incubated at 37° C. for 2 hours to obtain monocytes, macrophages and neutrophils. Inflammatory responses are known as a cascade reaction comprising the secretion of various cytokines, e.g., IL-1, from immune cells stimulated by various stimulants; production of phospholipase A2, lysosomal enzyme, reactive oxygen species, etc. by other immune cells stimulated by said cytokines; and damage of tissues induced by the above products(Pruzanski, W. and […]., Immunol. Today, 12, 143(1991)). The ability of acanthoic acid to block the inflammatory reactions was tested by measuring their inhibitory activity to the production of reactive oxygen species, i.e., H2 O2 and O2^-. For the purpose of measuring the amount of produced O2^-, neutrophils suspended in RPMI 1640 medium in a concentration of 1×10^6 cells/800 μl was added to a part of the wells of 24-well plate and 10 μg/ml of superoxide dismutase(SOD, Sigma) was added to the empty wells. The plate was stored at 37° C. for 2 minutes, and cytochrome C(3 mg/ml, Sigma) was added to the wells in a concentration of 100 μl/well. The cells were treated with 10, 20 and 50 μg/ml of acanthoic acid for an hour and reacted at 37° C. for 20 minutes by introducing 10^-7 PMA as a stimulant. The reaction was terminated by adding 1 mM N-ethylmaleimide(Sigma) to the wells and the culture was centrifuged at 1,600×g for 10 minutes to obtain a supernatant. The change of color of the supernatant caused by the reduction of cytochrome C was measured at 550 nm by using a UV-Visible spectrophotometer (Kontron Instrument, Milano, Italy). The amount of produced O2^- was represented by the concentration of SOD which can suppress the reduction of cytochrome C in 1×10^6 cells for 20 minutes, by employing the extinction coefficient of cytochrome C(E550 nm =1.83×10^4 […] cm^-1).

In general, inhibition refers to how much of the control response was suppressed. A lower inhibition goes with little suppression.

`C=C[C@@]1(C)CC=C2C(CCC3[C@](C)(C(=O)O)CCC[C@@]23C)C1` (single isomer, unassigned; (-)) [acanthoic acid, (-)-pimara-9(11),15-diene-19-oic acid] displayed an inhibition at 50 µg/mL (Neutrophil, 50 μg/ml, PMA) of 72%. In addition, the activity at 10 µg/mL (Neutrophil, 20 min, PMA + acanthoic acid 10 μg/ml, PMA = 100, read-out: Amount of produced reactive oxygen species, O2^- (% to the control group)) amounted to 76.8%. Also, the activity at 20 µg/mL (Neutrophil, 20 min, PMA + acanthoic acid 20 μg/ml, PMA = 100, read-out: Amount of produced reactive oxygen species, O2^- (% to the control group)) was determined as 31.6%. In addition, under “Neutrophil, 20 min, PMA + acanthoic acid 50 μg/ml, PMA = 100, read-out: Amount of produced reactive oxygen species, O2^- (% to the control group)”, the activity at 50 µg/mL was 28.4%. The “Amount of produced reactive oxygen species, O2^-” value is, setting by setting: (PMA + acanthoic acid 10 μg/ml) 11.9 nM/20 min; (PMA + acanthoic acid 20 μg/ml) 4.9 nM/20 min; (PMA + acanthoic acid 50 μg/ml) 4.4 nM/20 min.
